Data reported in paper PMC11079024, “Identification of a family of species-selective complex I inhibitors as potential anthelmintics” (Nature Communications, 2024).
Where “and” joins values, the source holds several entries; their conditions need not be identical. Equal entries are not always repeated.

Key:
HEK293 cells = conditions: HEK293 cells
[1] = test system: C. elegans complex IV (cytochrome C oxidase); test: In vitro complex IV activity assay, C. elegans mitochondria; type: biochemical, Caenorhabditis elegans
In short: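 Cytochrome C oxidase activity read spectrophotometrically at 550 nm (30 s intervals, 15 min) as oxidation of freshly DTT-reduced CytC. Mitochondria (0.2 mg/mL) came from adult worms of six C. elegans strains grown at 20 °C. Rates were taken from initial linear phase and normalised to solvent-control wells.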

adult H. polygyrus = type: cell-based, Heligmosomoides polygyrus; conditions: 10 µM, 24-h exposure, aerobic
Experimental: After either 24- or 72 h chemical treatment, worm viability was manually scored by an examiner using a scale from 0 (dead) to 3 (motile); DMSO was used as a negative control in both 24- and 72 h treatments. The percentage of affected worms (i.e., worms with a score equal to or lower than 1.5) in each biological replicate is shown; data are from two biological replicates. Within each boxplot, black horizontal lines denote group medians, boxes span from the 25th to the 75th percentile of each group’s distribution, and whiskers extend to the maximum and minimum values.
The eleven benzimidazole derivatives were tested at a concentration of 10 µM under aerobic conditions against L3 and adult H. polygyrus.
For the larval assay, mice feces were collected 2 weeks post-infection and eggs were isolated. The eggs were left on agar at room temperature in the dark for eight to 10 days to allow them to develop into L3. Next, 30–40 L3 were incubated (37 °C, 5% CO2) in the culture medium (RPMI 1640 medium + 1% pen./strep. + 5% amphotericin B) containing the derivatives in 96-well plate (Corning, USA) reaching a final volume of 250 µL for 24 h. For the adult drug screening assay, female NMRI mice were euthanized with CO2 and adult H. polygyrus were dissected out of the intestines. Subsequently, three worms were exposed to the culture medium (RPMI 1640 medium + 1% pen./strep. + 5% amphotericin B) with the derivatives (2 mL) in a 24-well plate (Corning, USA) for either 24 or 72 h. DMSO ( < 1%) served as a negative control in both assays. All conditions were tested in duplicates. Finally, 80 µL of hot water ( ~ 80 °C) for L3 and 500 µL of hot water (~80 °C) for adults were added to the wells to check for their viability under a microscope (Carl Zeiss, Germany). Larvae were categorized as being either alive or dead, depending on whether they moved or not. […] The whole experiment was performed two times i.e., two independent biological replicates for both life stages (L3s and adults) and exposure times (24 and 72 h).

L1 wild-type C. elegans = test: whole plant or invertebrate; conditions: Caenorhabditis elegans, 15 h, read-out: C. elegans KCN Survival Assay LC50

CC(C)Cc1ccc(C(C)c2nc3ccccc3n2C)cc1 (stereo not drawn) [NPD8790]
toxicity against mammalian cells (HEK293 cells): low toxicity | % Activity Complex IV ([1]; 100 µM compound, relative to solvent control, mean (SEM)): 79.84 (1.34) % | Percent in vitro activity, Complex IV (single replicate Rep1-Rep4) ([1]; 100 μM of NPD compound, C. elegans mitochondria, individual biological replicates): 83.143% and 80.952% and 83.287% and 71.964% | Percent in vitro activity, Complex IV (Mean) ([1]; 100 μM of NPD compound, C. elegans mitochondria, mean of four biological replicates): 79.837% | effect on adult H. polygyrus viability (adult H. polygyrus): potent effects | LC50 (L1 wild-type C. elegans): 14.3 µM
